# Values of other authors, collected in publication PMC10733197, “Utilization of Rosuvastatin and Endogenous Biomarkers in Evaluating the Impact of Ritlecitinib on BCRP, OATP1B1, and OAT3 Transporter Activity” (Pharmaceutical Research, 2023).
# Values joined by “and” are separate entries in the source; they are usually repeats but may differ in a detail not shown here. Equal entries are not always repeated. Where two headings read alike, the source gives them in different places.
# Assays:
# OATP1B1 [1] = target: T1, OATP1B1 (Homo sapiens, UniProt Q9Y6L6); details: CP-I 0.1 µM; 30-minute pre-incubation; HEK293; published data; ref 1 (Rodrigues AD 2023); cited from earlier work
# T1 construct: expressed in transfected cells; host or cells: HEK293
# T1 sequence (Q9Y6L6 1-691): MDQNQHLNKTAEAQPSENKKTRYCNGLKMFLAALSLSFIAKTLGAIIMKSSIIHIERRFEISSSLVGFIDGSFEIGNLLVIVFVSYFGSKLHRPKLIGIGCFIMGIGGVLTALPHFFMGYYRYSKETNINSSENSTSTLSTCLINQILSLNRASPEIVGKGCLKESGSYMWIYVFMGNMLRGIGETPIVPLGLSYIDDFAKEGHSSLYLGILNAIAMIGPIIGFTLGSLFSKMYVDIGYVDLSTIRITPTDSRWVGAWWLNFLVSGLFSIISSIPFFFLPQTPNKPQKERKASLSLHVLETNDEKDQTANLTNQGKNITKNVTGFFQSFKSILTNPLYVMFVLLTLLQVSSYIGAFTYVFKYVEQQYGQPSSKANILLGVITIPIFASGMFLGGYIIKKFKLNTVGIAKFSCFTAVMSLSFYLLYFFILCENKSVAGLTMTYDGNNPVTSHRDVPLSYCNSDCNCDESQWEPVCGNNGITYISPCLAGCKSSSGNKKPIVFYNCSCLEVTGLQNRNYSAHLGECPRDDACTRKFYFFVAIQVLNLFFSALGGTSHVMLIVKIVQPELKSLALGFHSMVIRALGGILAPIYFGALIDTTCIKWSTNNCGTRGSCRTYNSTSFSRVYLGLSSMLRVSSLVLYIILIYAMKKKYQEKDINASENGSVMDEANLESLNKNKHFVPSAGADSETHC
# [2] = cited from earlier work; for Imax,inlet,u: ka = 0.1 min^-1 assumed, ref 1 (Rodrigues AD 2023)
# OATP1B3 = target: T2, OATP1B3 (Homo sapiens, UniProt Q9NPD5); details: CP-I 0.1 µM; 30-minute pre-incubation; HEK293; published data; ref 1 (Rodrigues AD 2023); cited from earlier work
# T2 construct: expressed in transfected cells; host or cells: HEK293
# T2 sequence (Q9NPD5 1-702): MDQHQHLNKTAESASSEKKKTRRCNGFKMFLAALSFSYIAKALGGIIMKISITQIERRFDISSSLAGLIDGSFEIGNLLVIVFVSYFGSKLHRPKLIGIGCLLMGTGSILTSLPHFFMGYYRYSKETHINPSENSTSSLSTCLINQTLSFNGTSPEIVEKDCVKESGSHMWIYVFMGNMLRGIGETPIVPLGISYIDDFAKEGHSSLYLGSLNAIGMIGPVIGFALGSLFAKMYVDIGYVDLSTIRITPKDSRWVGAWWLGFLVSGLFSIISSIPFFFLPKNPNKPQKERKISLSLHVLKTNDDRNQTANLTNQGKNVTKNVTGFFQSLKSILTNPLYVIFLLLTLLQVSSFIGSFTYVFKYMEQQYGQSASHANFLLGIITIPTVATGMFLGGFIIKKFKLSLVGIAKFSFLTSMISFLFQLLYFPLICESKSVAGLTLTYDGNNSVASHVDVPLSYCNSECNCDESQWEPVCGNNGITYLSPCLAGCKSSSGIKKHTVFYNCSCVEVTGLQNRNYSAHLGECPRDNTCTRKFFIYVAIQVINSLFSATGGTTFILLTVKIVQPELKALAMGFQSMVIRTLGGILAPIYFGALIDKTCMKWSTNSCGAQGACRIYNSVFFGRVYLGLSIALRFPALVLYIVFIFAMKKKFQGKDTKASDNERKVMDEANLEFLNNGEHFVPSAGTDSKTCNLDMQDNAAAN
# OATP1B1 [3] = details: AUC ratio or single CP-I concentration ratio ± perpetrator, ref 1 (Rodrigues AD 2023), cited from earlier work
structure (smiles),measurement,setting,value
O=C(O)[C@H]1C2CCC(CC2)[C@@H]1Nc1nc(-c2c[nH]c3ncc(F)cc23)ncc1F [Pimodivir],IC50,OATP1B1 [1],500 nM
same,"Imax,inlet,u",[2]; inhibitor dose 600 mg,0.4 µM
same,IC50,OATP1B3,1100 nM
same,∆CP-I Observed,OATP1B1 [3]; inhibitor dose 600 mg,1.4
CC/C(=C(/c1ccc(/C=C/C(=O)O)cc1)c1ccc2[nH]ncc2c1)c1ccc(F)cc1Cl [GDC-0810],IC50,OATP1B1 [1],200 nM
same,"Imax,inlet,u",[2]; inhibitor dose 600 mg,0.009 µM
same,IC50,OATP1B3,900 nM
same,∆CP-I Observed,OATP1B1 [3]; inhibitor dose 600 mg,1.5
CO[C@H]1/C=C/O[C@@]2(C)Oc3c(C)c(O)c4c(O)c(c(/C=N/N5CCN(C)CC5)c(O)c4c3C2=O)NC(=O)/C(C)=C\C=C\[C@H](C)[C@H](O)[C@@H](C)[C@@H](O)[C@@H](C)[C@H](OC(C)=O)[C@@H]1C [Rifampicin],"Imax,inlet,u",[2]; inhibitor dose 150 mg,3 µM
same,"Imax,inlet,u",[2]; inhibitor dose 300 mg,5.9 µM
same,"Imax,inlet,u",[2]; inhibitor dose 600 mg,11.9 µM
same,IC50,OATP1B3,300 nM
same,∆CP-I Observed,OATP1B1 [3]; inhibitor dose 150 mg,1.5
same,∆CP-I Observed,OATP1B1 [3]; inhibitor dose 300 mg,2.4 and 2.3
same,∆CP-I Observed,OATP1B1 [3]; inhibitor dose 600 mg,3.5 and 3.7 and 4 and 5.6
C[C@H]1CCN1c1nc(N2C[C@@H]3[C@@H](CC(=O)O)[C@@H]3C2)cc(C(F)(F)F)n1 [PF-06835919],IC50,OATP1B1 [1],4300 nM
same,"Imax,inlet,u",[2]; inhibitor dose 50 mg,1.5 µM
same,"Imax,inlet,u",[2]; inhibitor dose 100 mg,2.5 µM
same,"Imax,inlet,u",[2]; inhibitor dose 280 mg,8.2 µM
same,"Imax,inlet,u",[2]; inhibitor dose 400 mg,10.3 µM
same,"Imax,inlet,u",[2]; inhibitor dose 600 mg,15.3 µM
same,IC50,OATP1B3,5600 nM
same,∆CP-I Observed,OATP1B1 [3]; inhibitor dose 50 mg,1.1
same,∆CP-I Observed,OATP1B1 [3]; inhibitor dose 100 mg,1.2
same,∆CP-I Observed,OATP1B1 [3]; inhibitor dose 280 mg,1.5
same,∆CP-I Observed,OATP1B1 [3]; inhibitor dose 400 mg,1.3
same,∆CP-I Observed,OATP1B1 [3]; inhibitor dose 600 mg,1.8
CCCN(CCC)S(=O)(=O)c1ccc(C(=O)O)cc1 [Probenecid],"Cmax,u",[2]; inhibitor dose 1000 mg,22 µM
same,"Imax,inlet,u","[2]; inhibitor dose 1,000 mg",56.6 µM
same,IC50,OATP1B3,118000 nM
same,∆CP-I Observed,"OATP1B1 [3]; inhibitor dose 1,000 mg",1.4
COc1ccc([C@@H]2Sc3ccccc3N(CCN(C)C)C(=O)[C@@H]2OC(C)=O)cc1 [Diltiazem],IC50,OATP1B1 [1],100000 nM
same,IC50,OATP1B3,175000 nM
CC(=O)O[C@H]1C(=O)[C@@]2(C)[C@H]([C@H](OC(=O)c3ccccc3)[C@]3(O)C[C@H](OC(=O)[C@H](O)[C@@H](NC(=O)c4ccccc4)c4ccccc4)C(C)=C1C3(C)C)[C@]1(OC(C)=O)CO[C@@H]1C[C@@H]2O [Paclitaxel],IC50,OATP1B3,700 nM
same,∆CP-I Observed,OATP1B1 [3]; inhibitor dose 200 mg,2.8
C[C@H]1CN(C2COC2)CCN1c1ccc(Nc2cc(-c3ccnc(N4CCn5c(cc6c5CC(C)(C)C6)C4=O)c3CO)cn(C)c2=O)nc1 [Fenebrutinib],IC50,OATP1B1 [1],6100 nM
same,"Imax,inlet,u",[2]; inhibitor dose 200 mg,4.2 µM
same,IC50,OATP1B3,1200 nM
same,∆CP-I Observed,OATP1B1 [3]; inhibitor dose 200 mg,1
CCC(C)n1ncn(-c2ccc(N3CCN(c4ccc(OCC5COC(Cn6cncn6)(c6ccc(Cl)cc6Cl)O5)cc4)CC3)cc2)c1=O (centres unmarked) [Itraconazole],IC50,OATP1B1 [1],20000 nM
same,"Imax,inlet,u",[2]; inhibitor dose 200 mg,0.3 µM
same,IC50,OATP1B3,20000 nM
same,∆CP-I Observed,OATP1B1 [3]; inhibitor dose 200 mg,0.9
COc1ccc2c(O[C@@H]3C[C@H]4C(=O)N[C@]5(C(=O)NS(=O)(=O)C6CC6)C[C@H]5/C=C\CCCCN(C)C(=O)[C@@H]4C3)cc(-c3nc(C(C)C)cs3)nc2c1C [Simeprevir],IC50,OATP1B1 [1],1000 nM
same,"Imax,inlet,u",[2]; inhibitor dose 150 mg,0.002 µM
same,IC50,OATP1B3,500 nM
same,∆CP-I Observed,OATP1B1 [3]; inhibitor dose 150 mg,1.4
